Experiments:
[1] = target: AP2-associated protein kinase 1 (Homo sapiens) (UniProt Q2M2I8); conditions: Compound concentration 1000.0 nM
[2] = tested on: Tyrosine-protein kinase ABL1 (Homo sapiens), P00519 [F317I]; conditions: Compound concentration 1000.0 nM
[3] = tested on: Tyrosine-protein kinase ABL1 (Homo sapiens), P00519 [F317I]; conditions: Compound concentration 1000.0 nM; remark: listed apart in the source
[4] = tested on: Tyrosine-protein kinase ABL1 (Homo sapiens), P00519 [F317L]; conditions: Compound concentration 1000.0 nM
[5] = target: RAC-alpha serine/threonine-protein kinase (Homo sapiens) (UniProt P31749); conditions: Compound concentration 1000.0 nM
[6] = target: BMP-2-inducible protein kinase (Homo sapiens) (UniProt Q9NSY1); conditions: Compound concentration 1000.0 nM
[7] = target: Calcium/calmodulin-dependent protein kinase type 1G (Homo sapiens) (UniProt Q96NX5); conditions: Compound concentration 1000.0 nM
[8] = target: Cyclin-dependent kinase-like 1 (Homo sapiens) (UniProt Q00532); conditions: Compound concentration 1000.0 nM
[9] = target: Citron Rho-interacting kinase (Homo sapiens) (UniProt O14578); conditions: Compound concentration 1000.0 nM
[10] = target: Dual specificity protein kinase CLK4 (Homo sapiens) (UniProt Q9HAZ1); conditions: Compound concentration 1000.0 nM
[11] = target: Macrophage colony-stimulating factor 1 receptor (Homo sapiens) (UniProt P07333); conditions: Compound concentration 1000.0 nM
[12] = target: Casein kinase I isoform alpha-like (Homo sapiens) (UniProt Q8N752); conditions: Compound concentration 1000.0 nM
[13] = target: Casein kinase I isoform delta (Homo sapiens) (UniProt P48730); conditions: Compound concentration 1000.0 nM
[14] = target: Ephrin type-A receptor 8 (Homo sapiens) (UniProt P29322); conditions: Compound concentration 1000.0 nM
[15] = target: Receptor tyrosine-protein kinase erbB-2 (Homo sapiens) (UniProt P04626); conditions: Compound concentration 1000.0 nM
[16] = target: Receptor tyrosine-protein kinase erbB-4 (Homo sapiens) (UniProt Q15303); conditions: Compound concentration 1000.0 nM
[17] = target: Tyrosine-protein kinase Fer (Homo sapiens) (UniProt P16591); conditions: Compound concentration 1000.0 nM
[18] = tested on: Receptor-type tyrosine-protein kinase FLT3 (Homo sapiens), P36888 [UNDEFINED MUTATION]; conditions: Compound concentration 1000.0 nM
[19] = tested on: Receptor-type tyrosine-protein kinase FLT3 (Homo sapiens), P36888 [UNDEFINED MUTATION]; conditions: Compound concentration 1000.0 nM; remark: listed apart in the source
[20] = tested on: Receptor-type tyrosine-protein kinase FLT3 (Homo sapiens), P36888 [R834Q]; conditions: Compound concentration 1000.0 nM
[21] = tested on: eIF-2-alpha kinase GCN2 (Homo sapiens), Q9P2K8 [S808G]; conditions: Compound concentration 1000.0 nM
[22] = target: Tyrosine-protein kinase Lck (Homo sapiens) (UniProt P06239); conditions: Compound concentration 1000.0 nM
[23] = target: Leucine-rich repeat serine/threonine-protein kinase 2 (Homo sapiens) (UniProt Q5S007); conditions: Compound concentration 1000.0 nM
[24] = target: Dual specificity mitogen-activated protein kinase kinase 1 (Homo sapiens) (UniProt Q02750); conditions: Compound concentration 1000.0 nM
[25] = target: Dual specificity mitogen-activated protein kinase kinase 3 (Homo sapiens) (UniProt P46734); conditions: Compound concentration 1000.0 nM
[26] = target: Dual specificity mitogen-activated protein kinase kinase 5 (Homo sapiens) (UniProt Q13163); conditions: Compound concentration 1000.0 nM
[27] = target: Serine/threonine-protein kinase 4 (Homo sapiens) (UniProt Q13043); conditions: Compound concentration 1000.0 nM
[28] = target: Myosin light chain kinase 2, skeletal/cardiac muscle (Homo sapiens) (UniProt Q9H1R3); conditions: Compound concentration 1000.0 nM
[29] = target: Mitogen-activated protein kinase kinase kinase 14 (Homo sapiens) (UniProt Q99558); conditions: Compound concentration 1000.0 nM
[30] = target: Phosphatidylinositol 4-kinase beta (Homo sapiens) (UniProt Q9UBF8); conditions: Compound concentration 1000.0 nM
[31] = target: Serine/threonine-protein kinase PknB (Mycobacterium tuberculosis) (UniProt P9WI81); conditions: Compound concentration 1000.0 nM
[32] = target: Protein kinase C eta type (Homo sapiens) (UniProt P24723); conditions: Compound concentration 1000.0 nM
[33] = target: Serine/threonine-protein kinase SIK3 (Homo sapiens) (UniProt Q9Y2K2); conditions: Compound concentration 1000.0 nM
[34] = target: Receptor-interacting serine/threonine-protein kinase 2 (Homo sapiens) (UniProt O43353); conditions: Compound concentration 1000.0 nM
[35] = target: Uncharacterized serine/threonine-protein kinase SBK3 (Homo sapiens) (UniProt P0C264); conditions: Compound concentration 1000.0 nM
[36] = target: Serine/threonine-protein kinase TBK1 (Homo sapiens) (UniProt Q9UHD2); conditions: Compound concentration 1000.0 nM
[37] = target: Transient receptor potential cation channel subfamily M member 6 (Homo sapiens) (UniProt Q9BX84); conditions: Compound concentration 1000.0 nM
[38] = target: Testis-specific serine/threonine-protein kinase 1 (Homo sapiens) (UniProt Q9BXA7); conditions: Compound concentration 1000.0 nM
[39] = target: Tyrosine-protein kinase TXK (Homo sapiens) (UniProt P42681); conditions: Compound concentration 1000.0 nM
[40] = target: Non-receptor tyrosine-protein kinase TYK2 (Homo sapiens) (UniProt P29597); conditions: Compound concentration 1000.0 nM
[41] = target: Wee1-like protein kinase (Homo sapiens) (UniProt P30291); conditions: Compound concentration 1000.0 nM
[42] = target: Serine/threonine-protein kinase 32B (Homo sapiens) (UniProt Q9NY57); conditions: Compound concentration 1000.0 nM
[43] = target: Serine/threonine-protein kinase 32C (Homo sapiens) (UniProt Q86UX6); conditions: Compound concentration 1000.0 nM
[44] = target: Mitogen-activated protein kinase kinase kinase 19 (Homo sapiens) (UniProt Q56UN5); conditions: Compound concentration 1000.0 nM
[45] = target: Alpha-2C adrenergic receptor (Homo sapiens) (UniProt P18825); conditions: Compound concentration 10.0 uM

Tyrosine-protein kinase ABL1 (Homo sapiens), P00519 [F317I], sequence (P00519 whole entry F317I): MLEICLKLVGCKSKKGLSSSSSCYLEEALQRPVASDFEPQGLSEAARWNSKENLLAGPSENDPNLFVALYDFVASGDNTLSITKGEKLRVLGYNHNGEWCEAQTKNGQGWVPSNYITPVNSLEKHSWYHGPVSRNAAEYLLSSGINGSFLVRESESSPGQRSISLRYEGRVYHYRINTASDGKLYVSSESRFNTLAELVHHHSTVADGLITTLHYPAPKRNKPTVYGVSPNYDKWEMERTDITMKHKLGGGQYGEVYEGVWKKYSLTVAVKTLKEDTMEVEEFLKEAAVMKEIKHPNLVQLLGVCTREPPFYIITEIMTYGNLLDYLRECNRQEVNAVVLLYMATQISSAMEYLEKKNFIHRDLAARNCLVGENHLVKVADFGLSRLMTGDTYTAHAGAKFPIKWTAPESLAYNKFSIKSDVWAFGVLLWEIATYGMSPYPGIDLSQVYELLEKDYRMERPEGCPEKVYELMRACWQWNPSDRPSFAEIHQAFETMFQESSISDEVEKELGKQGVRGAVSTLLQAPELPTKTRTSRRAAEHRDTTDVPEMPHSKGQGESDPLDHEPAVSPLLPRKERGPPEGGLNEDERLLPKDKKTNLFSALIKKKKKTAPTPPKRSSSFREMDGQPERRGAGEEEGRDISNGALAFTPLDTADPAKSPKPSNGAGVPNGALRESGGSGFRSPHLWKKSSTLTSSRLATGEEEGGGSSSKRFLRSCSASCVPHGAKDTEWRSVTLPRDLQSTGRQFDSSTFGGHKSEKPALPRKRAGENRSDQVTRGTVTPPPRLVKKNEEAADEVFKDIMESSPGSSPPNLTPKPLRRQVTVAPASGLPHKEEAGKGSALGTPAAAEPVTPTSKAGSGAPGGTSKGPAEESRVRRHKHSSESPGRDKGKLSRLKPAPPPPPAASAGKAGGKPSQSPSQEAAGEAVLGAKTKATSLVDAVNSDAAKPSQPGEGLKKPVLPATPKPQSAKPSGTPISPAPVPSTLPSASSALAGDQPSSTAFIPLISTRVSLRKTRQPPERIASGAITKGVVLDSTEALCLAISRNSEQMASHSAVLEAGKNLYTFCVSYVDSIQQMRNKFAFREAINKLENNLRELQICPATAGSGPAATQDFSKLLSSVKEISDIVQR
Dual specificity protein kinase CLK4 (Homo sapiens), sequence (Q9HAZ1 whole entry, looked up): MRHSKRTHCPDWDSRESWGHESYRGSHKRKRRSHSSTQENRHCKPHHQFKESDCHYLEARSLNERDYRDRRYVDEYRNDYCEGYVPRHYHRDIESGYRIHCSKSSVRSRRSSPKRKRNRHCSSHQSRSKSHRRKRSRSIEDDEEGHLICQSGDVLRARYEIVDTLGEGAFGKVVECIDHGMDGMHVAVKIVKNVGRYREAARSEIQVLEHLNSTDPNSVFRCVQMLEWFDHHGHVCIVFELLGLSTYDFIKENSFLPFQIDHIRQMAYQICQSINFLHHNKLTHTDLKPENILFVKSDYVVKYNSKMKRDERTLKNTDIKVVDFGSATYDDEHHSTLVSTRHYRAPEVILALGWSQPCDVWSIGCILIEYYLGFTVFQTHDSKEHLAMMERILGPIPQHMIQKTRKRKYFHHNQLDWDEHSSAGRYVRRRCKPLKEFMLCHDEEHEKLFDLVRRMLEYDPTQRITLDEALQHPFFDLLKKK
Receptor tyrosine-protein kinase erbB-2 (Homo sapiens), sequence (P04626 whole entry): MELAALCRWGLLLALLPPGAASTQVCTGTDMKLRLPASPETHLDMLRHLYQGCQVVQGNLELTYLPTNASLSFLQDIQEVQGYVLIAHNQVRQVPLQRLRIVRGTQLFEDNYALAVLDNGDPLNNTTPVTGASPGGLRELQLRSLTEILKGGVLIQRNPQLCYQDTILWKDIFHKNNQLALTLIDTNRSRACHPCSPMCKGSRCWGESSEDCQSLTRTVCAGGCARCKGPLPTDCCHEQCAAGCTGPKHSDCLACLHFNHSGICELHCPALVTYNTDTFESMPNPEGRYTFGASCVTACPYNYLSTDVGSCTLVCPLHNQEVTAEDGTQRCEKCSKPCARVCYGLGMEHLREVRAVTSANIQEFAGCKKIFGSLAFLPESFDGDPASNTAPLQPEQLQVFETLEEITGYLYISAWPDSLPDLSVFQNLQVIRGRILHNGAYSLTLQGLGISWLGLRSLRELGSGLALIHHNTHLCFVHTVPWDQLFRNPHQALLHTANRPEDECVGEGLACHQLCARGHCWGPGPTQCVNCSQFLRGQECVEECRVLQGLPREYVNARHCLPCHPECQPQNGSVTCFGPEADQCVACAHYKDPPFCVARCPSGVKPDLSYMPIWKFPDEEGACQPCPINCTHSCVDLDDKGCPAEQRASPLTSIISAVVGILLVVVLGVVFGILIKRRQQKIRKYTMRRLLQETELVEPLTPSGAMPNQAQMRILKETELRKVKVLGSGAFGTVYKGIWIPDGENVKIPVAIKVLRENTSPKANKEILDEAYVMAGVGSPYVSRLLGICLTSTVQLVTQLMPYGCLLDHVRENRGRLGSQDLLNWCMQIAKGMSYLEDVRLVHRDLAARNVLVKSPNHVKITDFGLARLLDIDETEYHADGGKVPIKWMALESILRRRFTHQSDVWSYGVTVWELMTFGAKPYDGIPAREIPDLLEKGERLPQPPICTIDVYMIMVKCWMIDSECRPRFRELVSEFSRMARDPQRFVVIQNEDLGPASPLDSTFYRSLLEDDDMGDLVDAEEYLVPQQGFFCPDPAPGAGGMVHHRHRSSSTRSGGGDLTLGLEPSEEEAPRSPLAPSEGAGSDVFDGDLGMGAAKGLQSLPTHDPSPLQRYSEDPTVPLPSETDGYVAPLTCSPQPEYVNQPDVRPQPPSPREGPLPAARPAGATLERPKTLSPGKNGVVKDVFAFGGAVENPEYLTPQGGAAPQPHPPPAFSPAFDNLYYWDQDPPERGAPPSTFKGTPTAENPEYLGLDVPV
Serine/threonine-protein kinase 32B (Homo sapiens), sequence (Q9NY57 whole entry): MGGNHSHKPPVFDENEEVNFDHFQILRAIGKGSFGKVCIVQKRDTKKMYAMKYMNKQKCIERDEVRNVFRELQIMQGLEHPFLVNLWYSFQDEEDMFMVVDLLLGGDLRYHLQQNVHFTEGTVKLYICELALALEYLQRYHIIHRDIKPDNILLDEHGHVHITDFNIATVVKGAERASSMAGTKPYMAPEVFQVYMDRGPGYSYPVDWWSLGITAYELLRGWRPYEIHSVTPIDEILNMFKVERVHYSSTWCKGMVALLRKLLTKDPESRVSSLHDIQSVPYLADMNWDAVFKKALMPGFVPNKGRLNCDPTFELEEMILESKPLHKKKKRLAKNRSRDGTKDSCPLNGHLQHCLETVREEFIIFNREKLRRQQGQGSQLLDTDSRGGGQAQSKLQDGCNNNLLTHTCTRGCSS
Tyrosine-protein kinase ABL1 (Homo sapiens), P00519 [F317L], sequence (P00519 whole entry F317L): as the sequence (P00519 whole entry F317I) above, with I317L counted along it
Dual specificity mitogen-activated protein kinase kinase 1 (Homo sapiens), sequence (Q02750 whole entry): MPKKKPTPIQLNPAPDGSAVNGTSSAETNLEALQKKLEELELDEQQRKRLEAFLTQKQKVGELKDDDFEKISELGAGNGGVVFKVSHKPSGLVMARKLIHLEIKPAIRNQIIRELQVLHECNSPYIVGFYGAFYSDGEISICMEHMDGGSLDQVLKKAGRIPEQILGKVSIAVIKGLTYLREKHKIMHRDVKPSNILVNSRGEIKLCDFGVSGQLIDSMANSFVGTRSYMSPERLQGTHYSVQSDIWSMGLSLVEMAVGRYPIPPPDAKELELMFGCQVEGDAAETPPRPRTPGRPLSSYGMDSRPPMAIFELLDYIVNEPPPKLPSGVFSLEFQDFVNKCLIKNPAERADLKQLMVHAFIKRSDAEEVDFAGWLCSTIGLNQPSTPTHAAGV

N#Cc1ccc(Nc2ccc3[nH]c(=O)[nH]c3c2)c(Cl)c1
inactive: residual activity [1] 100% | residual activity [2] 92% | residual activity [3] 81% | residual activity [4] 84% | residual activity [5] 67% | residual activity [6] 91% | residual activity [7] 100% | residual activity [8] 84% | residual activity [9] 100% | residual activity [10] 98% | residual activity [11] 100% | residual activity [12] 100% | residual activity [13] 100% | residual activity [14] 100% | residual activity [15] 100% | residual activity [16] 100% | residual activity [17] 100% | residual activity [18] 100% | residual activity [19] 100% | residual activity [20] 90% | residual activity [21] 93% | residual activity [22] 100% | residual activity [23] 96% | residual activity [24] 88% | residual activity [25] 75% | residual activity [26] 100% | residual activity [27] 100% | residual activity [28] 99% | residual activity [29] 100% | residual activity [30] 100% | residual activity [31] 100% | residual activity [32] 97% | residual activity [33] 75% | residual activity [34] 70% | residual activity [35] 96% | residual activity [36] 100% | residual activity [37] 100% | residual activity [38] 56% | residual activity [39] 87% | residual activity [40] 100% | residual activity [41] 87% | residual activity [42] 92% | residual activity [43] 82% | residual activity [44] 100% | inhibition [45] 4.16%

O=C1CCc2cc(Nc3cc(OC4CCOCC4)c([N+](=O)[O-])cc3Cl)ccc2N1
inactive: residual activity [1] 100% | residual activity [2] 100% | residual activity [3] 92% | residual activity [4] 88% | residual activity [5] 98% | residual activity [6] 100% | residual activity [7] 100% | residual activity [8] 78% | residual activity [9] 100% | residual activity [10] 88% | residual activity [11] 95% | residual activity [12] 84% | residual activity [13] 90% | residual activity [14] 100% | residual activity [15] 100% | residual activity [16] 100% | residual activity [17] 100% | residual activity [18] 100% | residual activity [19] 89% | residual activity [20] 87% | residual activity [21] 85% | residual activity [22] 100% | residual activity [23] 72% | residual activity [24] 72% | residual activity [25] 86% | residual activity [26] 100% | residual activity [27] 100% | residual activity [28] 90% | residual activity [29] 81% | residual activity [30] 100% | residual activity [31] 94% | residual activity [32] 86% | residual activity [33] 75% | residual activity [34] 53% | residual activity [35] 100% | residual activity [36] 100% | residual activity [37] 100% | residual activity [38] 85% | residual activity [39] 79% | residual activity [40] 94% | residual activity [41] 99% | residual activity [42] 88% | residual activity [43] 83% | residual activity [44] 100% | inhibition [45] -0.13%

From ChEMBL document CHEMBL4507304, “Data for DCP probe TP-021” (2021)
